Results on 52 compounds are retold here after BindingDB's records for doi:10.7270/Q2N58JS6 (University of Pittsburgh, 2007).

Serine/threonine-protein kinase PLK1, sequence (P53350 whole entry): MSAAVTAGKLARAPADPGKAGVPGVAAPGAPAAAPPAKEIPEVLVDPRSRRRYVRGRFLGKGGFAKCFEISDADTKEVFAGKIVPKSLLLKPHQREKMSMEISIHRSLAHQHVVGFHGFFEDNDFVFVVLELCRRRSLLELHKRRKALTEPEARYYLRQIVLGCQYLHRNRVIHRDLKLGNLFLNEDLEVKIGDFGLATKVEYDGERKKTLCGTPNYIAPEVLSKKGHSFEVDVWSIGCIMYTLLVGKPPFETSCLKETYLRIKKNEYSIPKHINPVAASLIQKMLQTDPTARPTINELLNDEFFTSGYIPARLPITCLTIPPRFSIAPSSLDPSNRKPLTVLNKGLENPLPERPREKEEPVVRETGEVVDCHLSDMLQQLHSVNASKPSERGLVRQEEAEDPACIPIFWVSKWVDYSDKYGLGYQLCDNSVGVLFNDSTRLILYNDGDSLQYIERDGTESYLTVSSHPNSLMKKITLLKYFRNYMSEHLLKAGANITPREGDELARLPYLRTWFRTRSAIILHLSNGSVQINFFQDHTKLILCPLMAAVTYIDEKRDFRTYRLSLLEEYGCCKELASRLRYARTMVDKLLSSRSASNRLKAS

This test concerns the target Serine/threonine-protein kinase PLK1 (Homo sapiens, UniProt P53350). Nature of the test: H2O2 production by redox-active compounds – biochemical, 1 mM DTT, artefact control for Plk1 PBD inhibitor project, dose response (AID 936).
In general, EC50 refers to the concentration that produces a half-maximal response. Low values mean a more potent agent, high ones a less potent agent. On to `O=C1C(=O)c2ccccc2-c2ccccc21`, for which the concentration giving a half-maximal response (EC50) is over 50 µM.
In the case of `Cc1ccc(-n2c(O)c(C=NCCN3CCOCC3)c(=O)[nH]c2=O)cc1`, the EC50 was over 50 µM.
The compound `CCOC(=O)c1ccc(NC(=O)c2c(O)[nH]c(=O)[nH]c2=O)cc1` had an EC50 of over 50 µM.
`O=c1[nH]cc(COCc2ccccc2)c(=O)[nH]1` came in with an EC50 of over 50 µM.
For the compound `Cc1ccc(NC2=CC(=NS(=O)(=O)c3cccs3)c3ccccc3C2=O)c(C)c1`, the EC50 was over 50 µM.
`CN1C(=O)N(C)C(=O)C2(Sc3ccccc3C2=O)C1=O` [1',3'-dimethylspiro[benzothiophene-2,5'-hexahydropyrimidine]-2',3,4',6'-diquinone]: the EC50 was over 50 µM.
The compound `Cc1ccc2c(c1)CC1(CN2C)C(=O)NC(=O)N(c2ccccc2C)C1=O` (configuration not stated) [1',6'-dimethyl-1-(2-methylphenyl)spiro[1,3-diazinane-5,3'-2,4-dihydroquinoline]-2,4,6-trione] registered an EC50 of over 50 µM.
`Cc1nc2c(=O)n(C)c(=O)nc-2n(C)n1` [1,3,6-Trimethyl-1H-pyrimido[5,4-e][1,2,4]triazine-5,7-dione] yielded an EC50 of over 50 µM.
The same measure for `Cn1c(=O)c2c(ncn2CCCc2ccccc2)n(C)c1=O` [1,3-Dimethyl-7-(3-phenyl-propyl)-3,7-dihydro-purine-2,6-dione]: over 50 µM; for `Cc1ccc(CNC(=O)c2cc3c(=O)n(C)c4ccccc4c3n2C)cc1` [1,5-dimethyl-N-[(4-methylphenyl)methyl]-4-oxidanylidene-pyrrolo[3,2-c]quinoline-2-carboxamide]: over 50 µM; for `O=C(Nc1ccccn1)C1CCN(S(=O)(=O)c2cccc3nonc23)CC1` [1-(2,1,3-benzoxadiazol-4-ylsulfonyl)-N-(2-pyridinyl)-4-piperidinecarboxamide]: over 50 µM.
`Cn1c(=O)c(NCCO)c2c3c(cccc31)C(=O)c1ccccc1-2` [1-(2-Hydroxy-ethylamino)-3-methyl-3H-naphtho[1,2,3-de]quinoline-2,7-dione] came in with an EC50 of over 50 µM.
For the compound `COc1cc(S(=O)(=O)N2CCCCCC2)ccc1-n1cnnn1` [1-(3-Methoxy-4-tetrazol-1-yl-benzenesulfonyl)-azepane], the EC50 is over 50 µM.
With `COc1ccc(CC2NCCC3(O)CCCCC23)cc1` (configuration not stated) [1-(4-Methoxy-benzyl)-octahydro-isoquinolin-4a-ol], the EC50 is over 50 µM.
With `O=C1CN(c2ccc(Br)cc2)C(=O)N1CC(=O)N1CCCc2ccccc21` [1-(4-bromophenyl)-3-[2-(3,4-dihydro-1(2H)-quinolinyl)-2-oxoethyl]-2,4-imidazolidinedione], the EC50 is over 50 µM.
The compound `CCCSc1nc(N2CCOCC2)c2c(c1C#N)CCCC2` [1-(4-morpholinyl)-3-(propylthio)-5,6,7,8-tetrahydroisoquinoline-4-carbonitrile] yielded an EC50 of over 50 µM.
In the case of `CS(=O)(=O)N1CCN(C/C=C/c2ccccc2)CC1` [1-(methylsulfonyl)-4-(3-phenyl-2-propen-1-yl)piperazine] it was over 50 µM.
`Fc1ccc(Cn2nnnc2CN2CCN(C3CCCC3)CC2)cc1` [1-Cyclopentyl-4-[1-(4-fluoro-benzyl)-1H-tetrazol-5-ylmethyl]-piperazine] showed an EC50 of over 50 µM.
In turn, `NC(=O)C1(N2CCCCC2)CCN(C(=O)NC2CCCCC2)CC1` [1-N-cyclohexyl-4-piperidin-1-ylpiperidine-1,4-dicarboxamide] had an EC50 of over 50 µM.
`CC(=O)N1CCc2cc(Br)cc(S(=O)(=O)NCc3ccccn3)c21` [1-acetyl-5-bromo-N-(2-pyridinylmethyl)-2,3-dihydroindole-7-sulfonamide] displayed an EC50 of over 50 µM.
Turning to `CCOC(=O)c1cc2n(c1N)-c1ccccc1C2=O` [1-amino-4-keto-pyrrol[1,2-a]indole-2-carboxylic acid ethyl ester], the EC50 is over 50 µM.
`O=C(c1ccc(-n2cnnn2)cc1)N1CCCCC1` [1-piperidinyl-[4-(1-tetrazolyl)phenyl]methanone] returned an EC50 of over 50 µM.
Compound `Cn1c(-c2cc3ccc(OC(=O)C(C)(C)C)cc3oc2=O)nc2ccccc21` [2,2-Dimethyl-propionic acid 3-(1-methyl-1H-benzoimidazol-2-yl)-2-oxo-2H-chromen-7-yl ester] registered an EC50 of over 50 µM.
Compound `O=C(Nc1cccn(Cc2c(Cl)cccc2Cl)c1=O)c1c(Cl)cccc1Cl` [2,6-dichloro-N-[1-(2,6-dichlorobenzyl)-2-keto-3-pyridyl]benzamide] came in with an EC50 of over 50 µM.
As to `Nc1cc(-c2ccc(Br)cc2)nn1S(=O)(=O)c1cccc2nsnc12` [2-(2,1,3-benzothiadiazol-4-ylsulfonyl)-5-(4-bromophenyl)-3-pyrazolamine], the EC50 is over 50 µM.
Compound `O=C(O)C1CCCCC1C(=O)Nc1ccc2c(c1)OCCO2` (configuration not stated) [2-(2,3-dihydro-1,4-benzodioxin-6-ylcarbamoyl)cyclohexane-1-carboxylic acid] came in with an EC50 of over 50 µM.
The compound `COc1ccccc1C1SCCN1S(=O)(=O)c1cccc(C(F)(F)F)c1` (configuration not stated) [2-(2-Methoxy-phenyl)-3-(3-trifluoromethyl-benzenesulfonyl)-thiazolidine] came in with a concentration for a half-maximal effect (EC50) of over 50 µM.
`NC(=O)Cn1c(S(=O)(=O)Cc2ccccc2)nc2ccccc21` [2-(2-benzylsulfonylbenzimidazol-1-yl)acetamide]: the EC50 is over 50 µM.
In turn, `COc1ccc(Nc2oc(-c3ccccc3Cl)nc2C#N)cc1` [2-(2-chlorophenyl)-5-(4-methoxyanilino)-1,3-oxazole-4-carbonitrile] showed an EC50 of over 50 µM.
In turn, `Cc1nn(C(C)C(=O)N2CCCCC2)c(=O)c2c1sc1ccccc12` (configuration not stated) [2-(2-keto-1-methyl-2-piperidino-ethyl)-4-methyl-benzothiopheno[2,3-d]pyridazin-1-one] gave a 50% effective concentration (EC50) of over 50 µM.
In the case of `O=C(Cc1ccc(Cl)cc1)NCCN1CCCC1` [2-(4-Chloro-phenyl)-N-(2-pyrrolidin-1-yl-ethyl)-acetamide], the EC50 was over 50 µM.
For `CNC(=O)CC(C(=O)O)c1ccc(OCC(C)C)cc1` (configuration not stated) [2-(4-Isobutoxy-phenyl)-N-methyl-succinamic acid], the EC50 was over 50 µM.
Take `Cc1ccc(OCC(=O)Nc2ccc(N3CCOCC3)cc2)cc1` [2-(4-methylphenoxy)-N-(4-morpholin-4-ylphenyl)acetamide]: the EC50 is over 50 µM.
In the case of `C=CCSc1nccc(-c2cc(Cl)sc2Cl)n1` [2-(allylsulfanyl)-4-(2,5-dichloro-3-thienyl)pyrimidine], the EC50 is over 50 µM.
For `CCNC(=O)NC(=O)C(C)OC(=O)c1cccnc1SC` (configuration not stated) [2-(methylthio)-3-pyridinecarboxylic acid [1-(ethylcarbamoylamino)-1-oxopropan-2-yl] ester], the EC50 was over 50 µM.
In turn, `Nc1ccc2c(c1)C(=O)C(=O)c1ccccc1-2` [2-Amino-phenanthrene-9,10-dione] had an EC50 of over 50 µM.
Consider `O=C(CC1C(=O)NCCN1C(=S)Nc1ccccc1)Nc1ccc2c(c1)OCCO2` (configuration not stated) [2-[1-(anilinocarbonothioyl)-3-oxo-2-piperazinyl]-N-(2,3-dihydro-1,4-benzodioxin-6-yl)acetamide], for which the EC50 is over 50 µM.
The same measure for `O=C(CN1C(=O)c2ccccc2C1=O)N1CCN(c2nnc(-c3ccccc3)c3ccccc23)CC1` [2-[2-keto-2-[4-(4-phenylphthalazin-1-yl)piperazino]ethyl]isoindoline-1,3-quinone]: over 50 µM.
With `CCC(Sc1nc2nnc(C)c-2c(N)n1-c1cccc(Cl)c1)C(=O)NCCOC` (configuration not stated) [2-[4-amino-5-(3-chlorophenyl)-3-methylpyrazolo[3,4-d]pyrimidin-6-yl]sulfanyl-N-(2-methoxyethyl)butanamide], the EC50 was over 50 µM.
As for `O=NCc1cc(Br)ccc1OCC(=O)O` [2-[4-bromanyl-2-(hydroxyiminomethyl)phenoxy]ethanoic acid], the EC50 was over 50 µM.
The compound `CCN1C(=O)/C(=C/c2nc3ccccc3c(=O)n2-c2ccccc2)c2ccccc21` [2-[(1-ethyl-2-oxo-1,2-dihydro-3H-indol-3-ylidene)methyl]-3-phenyl-4(3H)-quinazolinone] yielded an EC50 of over 50 µM.
`COc1ccc(S(=O)(=O)N(C)CC(=O)Nc2ccccc2C(F)(F)F)cc1` [2-[(4-methoxyphenyl)sulfonyl-methyl-amino]-N-[2-(trifluoromethyl)phenyl]acetamide]: the EC50 is over 50 µM.
On to `CCn1ncc(CN2CCN(C(=O)Nc3ccccc3C(=O)OC)CC2)c1C` [2-[[4-[(1-ethyl-5-methyl-pyrazol-4-yl)methyl]piperazine-1-carbonyl]amino]benzoic acid methyl ester], for which the half-maximal effective concentration (EC50) was over 50 µM.
In the case of `CCn1c(SCC(N)=O)nnc1-c1ccc(S(=O)(=O)N2CCN(C)CC2)cc1` [2-[[4-ethyl-5-[4-(4-methylpiperazin-1-yl)sulfonylphenyl]-1,2,4-triazol-3-yl]sulfanyl]acetamide] it was over 50 µM; in that of `COC(=O)CNC(=O)C12CC3(C)CC(C)(CC(C)(C3)C1)C2` [2-[[oxo-(3,5,7-trimethyl-1-adamantyl)methyl]amino]acetic acid methyl ester], over 50 µM; in that of `Cc1oc2c(c1C(=O)c1ccccc1)C(=O)C(=O)c1ccccc1-2` [2-methyl-3-(phenylcarbonyl)benzo[g][1]benzofuran-4,5-dione], over 50 µM.
`COc1cc(OC)cc(C(=O)NCCCN2CCOCC2)c1` [3,5-Dimethoxy-N-(3-morpholin-4-yl-propyl)-benzamide]: the EC50 was over 50 µM.
On to `Cc1cccc(-n2c(CCn3nc(C)c([N+](=O)[O-])c3C)n[nH]c2=S)c1` [3-(2-{4-nitro-3,5-dimethyl-1H-pyrazol-1-yl}ethyl)-4-(3-methylphenyl)-5-sulfanyl-4H-1,2,4-triazole], for which the EC50 is over 50 µM.
`Cc1cc(C)n(-c2nnc3n2N=C(c2ccccc2)CS3)n1` [3-(3,5-dimethyl-1-pyrazolyl)-6-phenyl-7H-[1,2,4]triazolo[3,4-b][1,3,4]thiadiazine] displayed an EC50 of over 50 µM.
Consider `Cn1nc(-c2ccc(Cl)cc2)nc2c(=O)n(C)c(=O)nc1-2` [3-(4-Chloro-phenyl)-1,6-dimethyl-1H-pyrimido[5,4-e][1,2,4]triazine-5,7-dione], for which the half-maximal effective concentration (EC50) was over 50 µM.
Consider `COc1ccc(Cn2c(=O)sc3ccccc32)cc1` [3-(4-Methoxy-benzyl)-3H-benzothiazol-2-one], for which the EC50 was over 50 µM.
The same measure for `COC(=O)CCc1c(C)[nH]c(=S)[nH]c1=O` [3-(6-methyl-4-oxo-2-sulfanylidene-1H-pyrimidin-5-yl)propanoic acid methyl ester]: over 50 µM.
